Experiments:
Type in all cases: biochemical
Flt-1 = target: T1, Flt-1 (Homo sapiens, UniProt P17948); test: Kinase inhibition assay (33P transfer), Flt-1
T1 construct: Kinases are expressed as either kinase domains or full length constructs; made in house
Method in brief: (§1)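 Using immobilised substrate copolymers (poly(Glu,Tyr) 4:1; poly(Arg,Ser) 3:1) and [33P]ATP, purified fusion kinases were allowed to react; plates were then rinsed in 0.5% phosphoric acid and counted in a scintillation detector. Half-maximal inhibition of label transfer defines IC50.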

Tek = target: T2, Tek (Homo sapiens, UniProt Q02763); test: Kinase inhibition assay (33P transfer), Tek; details: read-out: Tek-1
T2 construct: Kinases are expressed as either kinase domains or full length constructs; made in house
Method in brief: as §1

Itk = target: T3, Itk (Homo sapiens, UniProt Q08881); test: Kinase inhibition assay (33P transfer), Itk; details: Table 3; read-out: Itk-1
T3 construct: Kinases are expressed as either kinase domains or full length constructs; made in house
T3 sequence (Q08881 1-620): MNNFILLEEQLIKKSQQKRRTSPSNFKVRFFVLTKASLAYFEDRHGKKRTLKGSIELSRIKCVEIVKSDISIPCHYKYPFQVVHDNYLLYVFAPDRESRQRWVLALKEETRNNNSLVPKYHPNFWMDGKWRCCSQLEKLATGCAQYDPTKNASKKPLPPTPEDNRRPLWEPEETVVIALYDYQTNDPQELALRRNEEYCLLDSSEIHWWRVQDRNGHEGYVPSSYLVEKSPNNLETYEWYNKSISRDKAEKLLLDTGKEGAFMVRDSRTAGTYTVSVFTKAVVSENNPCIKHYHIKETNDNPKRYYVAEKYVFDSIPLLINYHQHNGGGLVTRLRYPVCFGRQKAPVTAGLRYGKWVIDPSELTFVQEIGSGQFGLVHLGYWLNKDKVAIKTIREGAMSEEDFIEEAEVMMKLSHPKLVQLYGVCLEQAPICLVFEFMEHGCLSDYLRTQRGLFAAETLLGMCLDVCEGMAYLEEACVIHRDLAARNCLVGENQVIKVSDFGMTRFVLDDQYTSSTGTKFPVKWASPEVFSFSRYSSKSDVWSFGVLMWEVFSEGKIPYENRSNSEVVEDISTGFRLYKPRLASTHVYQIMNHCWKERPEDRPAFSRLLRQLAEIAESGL
Method in brief: as §1

Lyn = target: T4, Lyn (Homo sapiens, UniProt P07948); test: Kinase inhibition assay (33P transfer), Lyn; details: Table 6, Lyn-1 kinase inhibition class
T4 construct: Kinases are expressed as either kinase domains or full length constructs; made in house
Method in brief: as §1

FGFR1 = target: T5, FGFR1 (Homo sapiens, UniProt P11362); test: Kinase inhibition assay (33P transfer), FGFR1; details: read-out: FGFR1-1
T5 construct: Kinases are expressed as either kinase domains or full length constructs; made in house

c-Met = target: T6, c-Met (Homo sapiens, UniProt P08581); test: Kinase inhibition assay (33P transfer), c-Met; details: Table 2, kinase inhibition class; read-out: Met-1
T6 construct: Kinases are expressed as either kinase domains or full length constructs; made in house
Method in brief: as §1

Ret-1 = target: T7, Ret-1 (Homo sapiens, UniProt P07949); test: Kinase inhibition assay (33P transfer), Ret; details: Table 6, Ret-1 kinase inhibition class
T7 construct: Kinases are expressed as either kinase domains or full length constructs; made in house

AKT = target: T8, AKT (Homo sapiens, UniProt Q9Y243); test: Kinase inhibition assay (33P transfer), AKT; details: Table 2, kinase inhibition class; read-out: AKT3-1
T8 construct: Kinases are expressed as either kinase domains or full length constructs; made in house
Method in brief: (§2)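 Radiometric readout: 33P incorporated into surface-bound poly(Glu,Tyr) 4:1 or poly(Arg,Ser) 3:1 is counted by liquid scintillation after a 0.5% phosphoric acid wash. Enzymes were GST or polyHis fusions (kinase domain or full length) from E. coli or High Five insect cells.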

Lck = target: T9, Lck (Homo sapiens, UniProt P06239); test: Kinase inhibition assay (33P transfer), Lck; details: Table 3; read-out: Lck-1
T9 construct: Kinases are expressed as either kinase domains or full length constructs; made in house
Method in brief: as §2

Hck-1 = target: T10, Hck-1 (Homo sapiens, UniProt P08631); test: Kinase inhibition assay (33P transfer), Hck; details: Table 6, Hck-1 kinase inhibition class
T10 construct: Kinases are expressed as either kinase domains or full length constructs; made in house

EGFR = target: T11, EGFR (Homo sapiens, UniProt P00533); test: Kinase inhibition assay (33P transfer), EGFR; details: Table 2, kinase inhibition class; read-out: EGFR-1
T11 construct: Kinases are expressed as either kinase domains or full length constructs; made in house
Method in brief: as §1

Src = target: T12, Src (Homo sapiens, UniProt P12931); test: Kinase inhibition assay (33P transfer), Src; details: Table 6, Src-1 kinase inhibition class
T12 construct: Kinases are expressed as either kinase domains or full length constructs; made in house
Method in brief: as §1

ErbB2 = target: T13, ErbB2 (Homo sapiens, UniProt P04626); test: Kinase inhibition assay (33P transfer), ErbB2; details: read-out: ErbB2-2
T13 construct: Kinases are expressed as either kinase domains or full length constructs; made in house
Method in brief: as §1

ErbB4 = target: T14, ErbB4 (Homo sapiens, UniProt Q15303); test: Kinase inhibition assay (33P transfer), ErbB4; details: read-out: ErbB4-1
T14 construct: Kinases are expressed as either kinase domains or full length constructs; made in house

T6 sequence (P08581 25-1390): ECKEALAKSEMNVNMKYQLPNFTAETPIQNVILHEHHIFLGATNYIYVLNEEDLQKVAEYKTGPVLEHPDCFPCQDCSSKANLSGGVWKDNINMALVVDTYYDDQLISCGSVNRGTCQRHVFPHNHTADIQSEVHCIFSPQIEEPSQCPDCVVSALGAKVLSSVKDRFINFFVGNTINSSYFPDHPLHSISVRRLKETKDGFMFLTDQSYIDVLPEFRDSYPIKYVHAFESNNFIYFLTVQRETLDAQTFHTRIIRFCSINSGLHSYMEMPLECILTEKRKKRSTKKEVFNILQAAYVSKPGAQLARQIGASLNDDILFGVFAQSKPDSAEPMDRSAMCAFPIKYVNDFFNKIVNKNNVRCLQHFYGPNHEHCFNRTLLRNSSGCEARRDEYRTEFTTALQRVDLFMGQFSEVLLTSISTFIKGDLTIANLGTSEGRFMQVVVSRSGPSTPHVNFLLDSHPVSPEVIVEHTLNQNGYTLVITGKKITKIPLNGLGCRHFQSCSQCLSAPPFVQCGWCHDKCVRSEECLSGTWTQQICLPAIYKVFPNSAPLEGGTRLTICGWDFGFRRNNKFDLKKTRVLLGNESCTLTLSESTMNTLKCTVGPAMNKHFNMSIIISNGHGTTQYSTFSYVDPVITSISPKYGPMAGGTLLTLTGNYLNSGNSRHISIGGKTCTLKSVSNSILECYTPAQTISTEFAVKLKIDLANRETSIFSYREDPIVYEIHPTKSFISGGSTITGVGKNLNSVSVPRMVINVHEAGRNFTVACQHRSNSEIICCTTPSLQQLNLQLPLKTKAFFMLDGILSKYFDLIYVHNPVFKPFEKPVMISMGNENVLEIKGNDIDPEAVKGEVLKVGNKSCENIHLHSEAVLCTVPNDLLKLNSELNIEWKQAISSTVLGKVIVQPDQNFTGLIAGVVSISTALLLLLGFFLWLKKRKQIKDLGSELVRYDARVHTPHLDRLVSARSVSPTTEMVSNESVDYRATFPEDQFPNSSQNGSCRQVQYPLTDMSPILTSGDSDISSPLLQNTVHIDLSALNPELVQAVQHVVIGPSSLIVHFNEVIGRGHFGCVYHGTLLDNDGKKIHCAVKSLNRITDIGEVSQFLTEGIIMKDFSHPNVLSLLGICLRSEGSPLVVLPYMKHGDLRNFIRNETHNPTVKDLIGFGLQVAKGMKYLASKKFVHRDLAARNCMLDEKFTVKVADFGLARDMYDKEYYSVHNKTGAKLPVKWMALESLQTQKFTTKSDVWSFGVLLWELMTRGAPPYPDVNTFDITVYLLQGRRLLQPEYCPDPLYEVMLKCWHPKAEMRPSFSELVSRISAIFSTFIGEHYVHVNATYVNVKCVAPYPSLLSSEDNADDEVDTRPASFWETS
T10 sequence (P08631 whole entry, the tested form may be a part): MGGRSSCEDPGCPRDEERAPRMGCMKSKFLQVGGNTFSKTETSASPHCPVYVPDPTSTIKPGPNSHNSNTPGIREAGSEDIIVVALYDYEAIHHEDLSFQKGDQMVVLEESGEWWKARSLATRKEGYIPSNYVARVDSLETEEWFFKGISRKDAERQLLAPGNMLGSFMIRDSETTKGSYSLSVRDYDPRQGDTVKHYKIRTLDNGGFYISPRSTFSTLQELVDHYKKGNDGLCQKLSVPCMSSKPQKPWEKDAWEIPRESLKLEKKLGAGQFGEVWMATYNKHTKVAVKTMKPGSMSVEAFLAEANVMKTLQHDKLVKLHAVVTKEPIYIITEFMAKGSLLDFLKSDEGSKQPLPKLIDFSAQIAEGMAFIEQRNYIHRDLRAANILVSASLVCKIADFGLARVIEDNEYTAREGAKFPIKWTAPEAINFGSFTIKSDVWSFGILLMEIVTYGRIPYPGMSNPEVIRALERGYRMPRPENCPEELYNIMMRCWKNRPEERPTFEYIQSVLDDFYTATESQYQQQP
T2 sequence (Q02763 23-1124, species assumed): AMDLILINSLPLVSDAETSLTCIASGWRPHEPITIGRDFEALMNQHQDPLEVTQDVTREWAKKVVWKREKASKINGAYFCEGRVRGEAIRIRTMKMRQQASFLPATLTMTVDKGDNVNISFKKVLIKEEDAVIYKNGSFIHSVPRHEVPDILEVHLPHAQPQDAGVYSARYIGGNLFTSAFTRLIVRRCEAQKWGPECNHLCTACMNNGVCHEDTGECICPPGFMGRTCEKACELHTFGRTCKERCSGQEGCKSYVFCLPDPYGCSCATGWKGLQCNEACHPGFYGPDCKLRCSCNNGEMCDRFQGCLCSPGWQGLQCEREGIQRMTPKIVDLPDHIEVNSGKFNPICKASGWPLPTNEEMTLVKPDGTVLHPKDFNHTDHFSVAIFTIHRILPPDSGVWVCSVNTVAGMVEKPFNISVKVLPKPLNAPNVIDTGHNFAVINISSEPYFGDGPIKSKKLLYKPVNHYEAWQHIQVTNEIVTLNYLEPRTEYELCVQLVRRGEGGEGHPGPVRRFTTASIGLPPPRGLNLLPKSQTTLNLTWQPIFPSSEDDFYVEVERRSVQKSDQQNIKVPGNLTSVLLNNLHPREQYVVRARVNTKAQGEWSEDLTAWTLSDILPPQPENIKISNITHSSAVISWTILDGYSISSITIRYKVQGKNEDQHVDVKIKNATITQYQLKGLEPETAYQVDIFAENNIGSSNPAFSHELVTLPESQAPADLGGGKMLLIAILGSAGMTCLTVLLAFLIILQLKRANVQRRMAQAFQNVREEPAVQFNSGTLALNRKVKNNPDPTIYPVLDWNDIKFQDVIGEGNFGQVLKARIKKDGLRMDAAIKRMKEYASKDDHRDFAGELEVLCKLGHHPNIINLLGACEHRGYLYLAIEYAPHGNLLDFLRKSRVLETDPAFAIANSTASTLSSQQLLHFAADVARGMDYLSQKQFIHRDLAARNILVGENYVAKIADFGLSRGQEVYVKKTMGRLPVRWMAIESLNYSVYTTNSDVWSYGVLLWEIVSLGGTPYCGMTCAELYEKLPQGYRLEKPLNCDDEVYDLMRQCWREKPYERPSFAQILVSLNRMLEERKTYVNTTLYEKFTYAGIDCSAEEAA
T4 sequence (P07948 whole entry, species assumed, the tested form may be a part): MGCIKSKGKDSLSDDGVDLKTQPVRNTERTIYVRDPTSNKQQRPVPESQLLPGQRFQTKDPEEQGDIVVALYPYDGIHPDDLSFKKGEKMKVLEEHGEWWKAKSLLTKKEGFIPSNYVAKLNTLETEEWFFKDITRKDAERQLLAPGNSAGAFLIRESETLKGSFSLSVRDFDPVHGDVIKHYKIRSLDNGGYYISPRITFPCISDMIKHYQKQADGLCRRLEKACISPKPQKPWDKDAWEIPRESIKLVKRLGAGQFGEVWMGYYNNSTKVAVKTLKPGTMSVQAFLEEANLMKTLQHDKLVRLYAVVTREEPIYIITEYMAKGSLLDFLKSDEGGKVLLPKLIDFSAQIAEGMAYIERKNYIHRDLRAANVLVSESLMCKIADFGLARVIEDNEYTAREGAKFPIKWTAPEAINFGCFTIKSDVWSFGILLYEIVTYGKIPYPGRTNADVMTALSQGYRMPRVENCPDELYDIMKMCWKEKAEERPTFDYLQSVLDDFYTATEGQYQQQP
T1 sequence (P17948 27-1338, species assumed): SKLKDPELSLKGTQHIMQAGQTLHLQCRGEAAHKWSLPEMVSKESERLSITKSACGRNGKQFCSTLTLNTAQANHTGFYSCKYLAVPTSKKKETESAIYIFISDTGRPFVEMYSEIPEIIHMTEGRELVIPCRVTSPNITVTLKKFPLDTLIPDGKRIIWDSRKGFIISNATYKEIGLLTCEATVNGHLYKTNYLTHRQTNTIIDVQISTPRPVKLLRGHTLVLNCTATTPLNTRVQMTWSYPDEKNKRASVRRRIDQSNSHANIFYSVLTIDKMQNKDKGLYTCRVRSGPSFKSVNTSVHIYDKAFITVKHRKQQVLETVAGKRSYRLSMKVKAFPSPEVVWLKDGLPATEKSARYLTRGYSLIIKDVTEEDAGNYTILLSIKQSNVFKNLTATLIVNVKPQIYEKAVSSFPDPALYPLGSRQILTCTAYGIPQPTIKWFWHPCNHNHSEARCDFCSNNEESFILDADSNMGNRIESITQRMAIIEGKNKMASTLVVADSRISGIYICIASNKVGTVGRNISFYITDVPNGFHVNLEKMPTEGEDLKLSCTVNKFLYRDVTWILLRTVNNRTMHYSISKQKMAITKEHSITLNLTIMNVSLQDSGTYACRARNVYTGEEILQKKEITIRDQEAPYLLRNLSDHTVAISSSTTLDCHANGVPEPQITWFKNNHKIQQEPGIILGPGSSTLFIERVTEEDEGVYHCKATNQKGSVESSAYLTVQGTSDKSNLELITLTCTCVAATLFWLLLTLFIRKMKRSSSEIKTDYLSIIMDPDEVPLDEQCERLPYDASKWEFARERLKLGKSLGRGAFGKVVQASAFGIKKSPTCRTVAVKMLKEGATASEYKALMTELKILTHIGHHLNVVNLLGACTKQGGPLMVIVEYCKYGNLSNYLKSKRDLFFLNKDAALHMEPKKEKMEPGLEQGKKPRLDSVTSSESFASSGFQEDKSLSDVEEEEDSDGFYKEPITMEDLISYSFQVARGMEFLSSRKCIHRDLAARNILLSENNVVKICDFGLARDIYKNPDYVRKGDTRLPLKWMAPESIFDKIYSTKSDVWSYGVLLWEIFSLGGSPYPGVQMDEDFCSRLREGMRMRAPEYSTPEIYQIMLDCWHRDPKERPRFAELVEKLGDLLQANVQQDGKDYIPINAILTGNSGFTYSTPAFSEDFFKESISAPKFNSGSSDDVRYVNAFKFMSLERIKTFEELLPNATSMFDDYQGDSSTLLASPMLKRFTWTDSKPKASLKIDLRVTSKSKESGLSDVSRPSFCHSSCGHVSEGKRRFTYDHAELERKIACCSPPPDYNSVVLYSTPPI

| IC50 (Flt-1) [nM] | IC50 (Tek) [µM] | IC50 (Itk) [µM] | IC50 (Lyn) [nM] | IC50 (FGFR1) [µM] | IC50 (c-Met) [µM] | IC50 (Ret-1) [µM] | IC50 (AKT) [µM] | IC50 (Lck) [µM] | IC50 (Hck-1) [µM] | IC50 (EGFR) [µM] | IC50 (Src) [µM] | IC50 (ErbB2) [µM] | IC50 (ErbB4) [µM] | SMILES |
| --- | --- | --- | --- | --- | --- | --- | --- | --- | --- | --- | --- | --- | --- | --- |
| 989 to 5930 | > 11.1 | > 11.1 | 8650 to 11100 | 0.989 to 5.93 | 8.65 to 11.1 | 0.989 to 5.93 | > 11.1 | 0.989 to 5.93 | 8.65 to 11.1 | 0.989 to 5.93 | 0.989 to 5.93 | – | – | COc1cc(Nc2ncnc(Nc3cnc4ccccc4c3)n2)cc(OC)c1OC [Compound 99] |
| < 1040 | > 11.7 | > 11.7 | 1040 to 6260 | > 11.7 | > 11.7 | 1.04 to 6.26 | > 11.7 | 1.04 to 6.26 | > 11.7 | 1.04 to 6.26 | 6.26 to 9.13 | – | – | COc1ccc(Nc2ncnc(Nc3cc(OC)c(OC)c(OC)c3)n2)cc1 [Compound 89] |
| 1040 to 6260 | > 11.7 | 9.13 to 11.7 | < 1040 | 1.04 to 6.26 | > 11.7 | 1.04 to 6.26 | > 11.7 | 1.04 to 6.26 | 1.04 to 6.26 | 1.04 to 6.26 | 1.04 to 6.26 | – | – | COc1ccccc1Nc1ncnc(Nc2cc(OC)c(OC)c(OC)c2)n1 [Compound 90] |
| 6510 to 9500 | 6.51 to 9.5 | > 12.2 | 1090 to 6510 | 6.51 to 9.5 | 1.09 to 6.51 | > 12.2 | 9.5 to 12.2 | > 12.2 | > 12.2 | 1.09 to 6.51 | 9.5 to 12.2 | – | – | COc1cc(Nc2ncnc(Nc3ccc(N)cc3)n2)cc(OC)c1OC [Compound 92] |
| < 827 | > 9.31 | > 9.31 | < 827 | < 0.827 | > 9.31 | – | > 9.31 | 0.827 to 4.96 | > 9.31 | 4.96 to 7.24 | 0.827 to 4.96 | > 9.31 | > 9.31 | COc1cc(Nc2ncnc(-n3c(NCc4ccccc4)nc4ccccc43)n2)cc(OC)c1OC [Compound 371] |

Continued, compound first:

| SMILES | IC50 (Flt-1) [nM] | IC50 (Tek) [µM] | IC50 (Itk) [µM] | IC50 (Lyn) [nM] | IC50 (FGFR1) [µM] | IC50 (c-Met) [µM] | IC50 (Ret-1) [µM] | IC50 (AKT) [µM] | IC50 (Lck) [µM] | IC50 (Hck-1) [µM] | IC50 (EGFR) [µM] | IC50 (Src) [µM] | IC50 (ErbB2) [µM] | IC50 (ErbB4) [µM] |
| --- | --- | --- | --- | --- | --- | --- | --- | --- | --- | --- | --- | --- | --- | --- |
| COc1cc(Nc2ncnc(Nc3ccc(Cl)cc3)n2)cc(OC)c1OC [Compound 72] | < 1030 | > 11.6 | > 11.6 | – | < 1.03 | 9.02 to 11.6 | < 1.03 | > 11.6 | 1.03 to 6.19 | – | 1.03 to 6.19 | – | 1.03 to 6.19 | 1.03 to 6.19 |
| COc1cc(Nc2ncnc(Nc3ccc(O)cc3Cl)n2)cc(OC)c1OC [Compound 77] | 991 to 5940 | > 11.1 | 8.67 to 11.1 | < 991 | 0.991 to 5.94 | > 11.1 | 0.991 to 5.94 | > 11.1 | 0.991 to 5.94 | > 11.1 | 0.991 to 5.94 | 0.991 to 5.94 | – | – |
| COc1cc(Nc2ncnc(Nc3ccc(C(C)C)cc3)n2)cc(OC)c1OC [Compound 66] | > 11400 | 6.07 to 8.85 | > 11.4 | 1010 to 6070 | > 11.4 | 1.01 to 6.07 | > 11.4 | > 11.4 | 1.01 to 6.07 | > 11.4 | > 11.4 | < 1.01 | – | – |
| COc1cc(Nc2ncnc(Nc3ccc(Br)cc3)n2)cc(OC)c1OC [Compound 82] | < 925 | > 10.4 | > 10.4 | – | 0.925 to 5.55 | > 10.4 | 0.925 to 5.55 | > 10.4 | 0.925 to 5.55 | – | 0.925 to 5.55 | – | – | – |

— patent publication US7074789B2, “Kinase inhibitors” (Amgen Inc., priority 1999, dated 2006)
